Laboratory results from PubChem BioAssay (NCI).
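The compound was tested at five concentrations on cells cultured in 96-well plates, with a 48-hour exposure period. At the GI50, growth is halved. TGI: total growth inhibition.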

Legend:
Assay in all cases: NCI-60 cell line screen, 48 h
SR leukemia = tested on: SR leukemia
SN12C renal = tested on: SN12C renal
CAKI-1 renal = tested on: CAKI-1 renal
OVCAR-4 ovarian = tested on: OVCAR-4 ovarian
MALME-3M melanoma = tested on: MALME-3M melanoma
MOLT-4 leukemia = tested on: MOLT-4 leukemia
SF-268 CNS = tested on: SF-268 CNS
SK-OV-3 ovarian = tested on: SK-OV-3 ovarian
T-47D breast = tested on: T-47D breast
SF-295 CNS = tested on: SF-295 CNS
HCT-15 colon = tested on: HCT-15 colon
SNB-19 CNS = tested on: SNB-19 CNS
RXF 393 renal = tested on: RXF 393 renal
RPMI-8226 leukemia = tested on: RPMI-8226 leukemia
HL-60(TB) leukemia = tested on: HL-60(TB) leukemia
TK-10 renal = tested on: TK-10 renal
UACC-257 melanoma = tested on: UACC-257 melanoma
SK-MEL-28 melanoma = tested on: SK-MEL-28 melanoma
786-0 renal = tested on: 786-0 renal
NCI-H23 lung = tested on: NCI-H23 lung
IGROV1 ovarian = tested on: IGROV1 ovarian
A549 NSCLC = tested on: A549 NSCLC
UACC-62 melanoma = tested on: UACC-62 melanoma
LOX IMVI melanoma = tested on: LOX IMVI melanoma
EKVX NSCLC = tested on: EKVX NSCLC
COLO 205 colon = tested on: COLO 205 colon
SK-MEL-5 melanoma = tested on: SK-MEL-5 melanoma
M14 melanoma = tested on: M14 melanoma
SW-620 colon = tested on: SW-620 colon
NCI-H460 lung = tested on: NCI-H460 lung
HOP-92 NSCLC = tested on: HOP-92 NSCLC
UO-31 renal = tested on: UO-31 renal
ACHN renal = tested on: ACHN renal
DU-145 prostate = tested on: DU-145 prostate
OVCAR-5 ovarian = tested on: OVCAR-5 ovarian
MCF7 breast = tested on: MCF7 breast
CCRF-CEM leukemia = tested on: CCRF-CEM leukemia
MDA-MB-231 breast = tested on: MDA-MB-231 breast
NCI/ADR-RES ovarian = tested on: NCI/ADR-RES ovarian
NCI-H522 lung = tested on: NCI-H522 lung
SNB-75 CNS = tested on: SNB-75 CNS
NCI-H226 lung = tested on: NCI-H226 lung
OVCAR-3 ovarian = tested on: OVCAR-3 ovarian
BT-549 breast = tested on: BT-549 breast
OVCAR-8 ovarian = tested on: OVCAR-8 ovarian
A498 renal = tested on: A498 renal
K-562 leukemia = tested on: K-562 leukemia
SK-MEL-2 melanoma = tested on: SK-MEL-2 melanoma
MDA-MB-435 = tested on: MDA-MB-435
HCC-2998 colon = tested on: HCC-2998 colon
HCT-116 colon = tested on: HCT-116 colon
KM12 colon = tested on: KM12 colon
U251 CNS = tested on: U251 CNS
HS 578T breast = tested on: HS 578T breast
HT29 colon = tested on: HT29 colon
SF-539 CNS = tested on: SF-539 CNS
PC-3 prostate = tested on: PC-3 prostate
HOP-62 NSCLC = tested on: HOP-62 NSCLC

Question: What does the source list for `CCn1c(-c2nonc2N)nc2c(C#CC(C)(C)O)nc(CN3CCCC3)cc21`?
Answer: GI50 (SR leukemia): > 25 µM; TGI (SR leukemia): > 25 µM; GI50 (SN12C renal): > 25 µM; TGI (SN12C renal): > 25 µM; GI50 (CAKI-1 renal): > 25 µM; TGI (CAKI-1 renal): > 25 µM; GI50 (OVCAR-4 ovarian): > 25 µM; TGI (OVCAR-4 ovarian): > 25 µM; GI50 (MALME-3M melanoma): > 25 µM; TGI (MALME-3M melanoma): > 25 µM; GI50 (MOLT-4 leukemia): > 20.4 µM; TGI (MOLT-4 leukemia): > 25 µM; GI50 (SF-268 CNS): > 25 µM; TGI (SF-268 CNS): > 25 µM; GI50 (SK-OV-3 ovarian): > 25 µM; TGI (SK-OV-3 ovarian): > 25 µM; GI50 (T-47D breast): 6.84 µM; TGI (T-47D breast): > 25 µM; GI50 (SF-295 CNS): 10.9 µM; TGI (SF-295 CNS): > 25 µM; GI50 (HCT-15 colon): > 25 µM; TGI (HCT-15 colon): > 25 µM; GI50 (SNB-19 CNS): > 25 µM; TGI (SNB-19 CNS): > 25 µM; GI50 (RXF 393 renal): 6.31 µM; TGI (RXF 393 renal): > 25 µM; GI50 (RPMI-8226 leukemia): > 25 µM; TGI (RPMI-8226 leukemia): > 25 µM; GI50 (HL-60(TB) leukemia): > 25 µM; TGI (HL-60(TB) leukemia): > 25 µM; GI50 (TK-10 renal): 17.9 µM; TGI (TK-10 renal): > 25 µM; GI50 (UACC-257 melanoma): > 25 µM; TGI (UACC-257 melanoma): > 25 µM; GI50 (SK-MEL-28 melanoma): > 25 µM; TGI (SK-MEL-28 melanoma): > 25 µM; GI50 (786-0 renal): 18.7 µM; TGI (786-0 renal): > 25 µM; GI50 (NCI-H23 lung): > 25 µM; TGI (NCI-H23 lung): > 25 µM; GI50 (IGROV1 ovarian): 9.23 µM; TGI (IGROV1 ovarian): > 25 µM; GI50 (A549 NSCLC): > 25 µM; TGI (A549 NSCLC): > 25 µM; GI50 (UACC-62 melanoma): > 25 µM; TGI (UACC-62 melanoma): > 25 µM; GI50 (LOX IMVI melanoma): > 25 µM; TGI (LOX IMVI melanoma): > 25 µM; GI50 (EKVX NSCLC): > 25 µM; TGI (EKVX NSCLC): > 25 µM; GI50 (COLO 205 colon): > 25 µM; TGI (COLO 205 colon): > 25 µM; GI50 (SK-MEL-5 melanoma): > 25 µM; TGI (SK-MEL-5 melanoma): > 25 µM; GI50 (M14 melanoma): > 25 µM; TGI (M14 melanoma): > 25 µM; GI50 (SW-620 colon): > 25 µM; TGI (SW-620 colon): > 25 µM; GI50 (NCI-H460 lung): > 25 µM; TGI (NCI-H460 lung): > 25 µM; GI50 (HOP-92 NSCLC): > 25 µM; TGI (HOP-92 NSCLC): > 25 µM; GI50 (UO-31 renal): > 25 µM; TGI (UO-31 renal): > 25 µM; GI50 (ACHN renal): > 25 µM; TGI (ACHN renal): > 25 µM; GI50 (DU-145 prostate): > 25 µM; TGI (DU-145 prostate): > 25 µM; GI50 (OVCAR-5 ovarian): > 25 µM; TGI (OVCAR-5 ovarian): > 25 µM; GI50 (MCF7 breast): 20 µM; TGI (MCF7 breast): > 25 µM; GI50 (CCRF-CEM leukemia): 20.5 µM; TGI (CCRF-CEM leukemia): > 25 µM; GI50 (MDA-MB-231 breast): > 25 µM; TGI (MDA-MB-231 breast): > 25 µM; GI50 (NCI/ADR-RES ovarian): > 25 µM; TGI (NCI/ADR-RES ovarian): > 25 µM; GI50 (NCI-H522 lung): 18.3 µM; TGI (NCI-H522 lung): > 25 µM; GI50 (SNB-75 CNS): 8.29 µM; TGI (SNB-75 CNS): > 25 µM; GI50 (NCI-H226 lung): > 25 µM; TGI (NCI-H226 lung): > 25 µM; GI50 (OVCAR-3 ovarian): > 25 µM; TGI (OVCAR-3 ovarian): > 25 µM; GI50 (BT-549 breast): 18.8 µM; TGI (BT-549 breast): > 25 µM; GI50 (OVCAR-8 ovarian): > 25 µM; TGI (OVCAR-8 ovarian): > 25 µM; GI50 (A498 renal): 1.39 µM; TGI (A498 renal): 14.6 µM; GI50 (K-562 leukemia): > 25 µM; TGI (K-562 leukemia): > 25 µM; GI50 (SK-MEL-2 melanoma): > 25 µM; TGI (SK-MEL-2 melanoma): > 25 µM; GI50 (MDA-MB-435): > 25 µM; TGI (MDA-MB-435): > 25 µM; GI50 (HCC-2998 colon): > 25 µM; TGI (HCC-2998 colon): > 25 µM; GI50 (HCT-116 colon): > 25 µM; TGI (HCT-116 colon): > 25 µM; GI50 (KM12 colon): > 25 µM; TGI (KM12 colon): > 25 µM; GI50 (U251 CNS): > 25 µM; TGI (U251 CNS): > 25 µM; GI50 (HS 578T breast): 7.39 µM; TGI (HS 578T breast): > 25 µM; GI50 (HT29 colon): > 25 µM; TGI (HT29 colon): > 25 µM; GI50 (SF-539 CNS): 16.9 µM; TGI (SF-539 CNS): > 25 µM; GI50 (PC-3 prostate): > 25 µM; TGI (PC-3 prostate): > 25 µM; GI50 (HOP-62 NSCLC): > 25 µM; TGI (HOP-62 NSCLC): > 25 µM
